Results published in patent US11013232B2, “Hydrotesting and mothballing composition and method of using combination products for multifunctional water treatment” (priority 2014, dated 2021).

Experiments:
[1] = Oxygen scavenging efficacy (real-time orbisphere oxygen sensor); details: 500 ppm
Experimental: Oxygen scavenging efficacy was evaluated using a real-time orbisphere oxygen sensor with data logging. The test equipment consisted of a stirrer plate and stirrer bar, a 1 liter test cell, circulation pump, flow chamber, oxygen sensor and data logger. Test work was performed using potable water taken from the mains water supply in The Woodlands, Tex. and then using filtered seawater taken from Galveston, Tex. Testing was performed at 4° C. and 25° C. by wrapping the test cell with a monoethylene glycol circulator chiller jacket. A carbon steel stirrer bar was added to the test cell to replicate turbulence that would be created upon pumping the hydrotest fluid using the metallurgy of a typical pipeline. A non-pulsing circulation pump was set to circulate the test fluid past the oxygen sensor at a rate of 10 mL·min^−1. The oxygen sensor was calibrated prior to every new test run. Each test was run for a duration of 60 minutes with a 10 minute stabilization period prior to the introduction of test chemical. Chemical was injected into the test cell by means of a needle and syringe through a rubber stopper to minimize any oxygen ingress during this stage of the test. Throughout the test, oxygen levels were measured once every minute and the data continuously logged.
All tests of the new formulations (detailed in Table 1) were benchmarked against has 50% ADMAC (specifically […]), 30% ammonium bisulfite and 20% water, herein referenced as Formulation 3 and detailed in Table 1. Furthermore ammonium bisulfite was used as a benchmark and the activity matched up to 30% which is the concentration used in all the formulations. Therefore all testing had the same concentration of oxygen scavenging component with the only variable being the other components of the formulation.
It should be noted that all testing was performed so that the concentration of oxygen scavenger was exactly the same in all tests so the only variables were the counter components in the formulations, this isolating the effects that combining components has upon the oxygen scavenging efficacy of the invented products. Therefore all formulations were added at 500 ppm. […] Furthermore, adding a dye into the formulation as well as the DDAC and DDABC, as is the case with Formulation 1, has no further negative effects on oxygen scavenging efficacy. It should be noted that scavenging in relatively warm seawater is not a very challenging environment to perform this testing in.

[2] = tested on: Acid Producing Bacteria (APB); experiment: Most Probable Number (MPN) bacterial kill efficacy, APB; assay type: cell-based, mixed consortia isolated from seawater; details: first MPN set; for APB per mL: formulation with ammonium bisulfide, 500 ppm active biocide; for log reduction of APB numbers: exposure time of 24 hours
Experimental: (§1) The Most Probably Number technique using a bacterial enumeration technique was performed, as described in NACE International Standard TMP 194-2004. Complex mixed consortia were isolated from seawater and subjected to the chemicals being tested. All chemicals were applied at the same active concentration. Surviving cells were assayed after exposure periods of 1, 7 and 28 days to the numbers compared with a control which received no treatments. The bottle tests were carried out using two mixed consortia—Sulfate Reducing Bacteria (SRB) and General Heterotrophic Bacteria (GHB) that also measured Acid Producing Bacteria (APB) enriched from seawater. Aliquots of the water (1 mL) were inoculated into SRB culture medium and GHB culture medium (Phenol Red Dextrose broth) respectively and sub-cultured twice. The cultures used in the tests were incubated at 30° C. for five days; these were then used to supplement seawater to achieve 10^3 to 10^4 SRB cells per mL. For the trial one control bottle and four test bottles were set up. The chemicals were added to the appropriate test bottles to give the final concentrations of each product as supplied. All chemicals were added so that 500 ppm of active biocide was present in each test. The control bottle contained seawater only with no added chemical.
(§2) At each time point, (one, seven and twenty-eight days), a sample was removed from each test bottle and the control bottle and used to inoculate the MPN vials. Bacterial counts were performed using the triplicate Most Probable Number method (triplicate MPNs). The inoculated MPN vials were incubated at 30° C. for 7 days for GHB and APB and 28 days for SRB. Results have been reported as cells per mL. […]

[3] = tested on: Sulfate Reducing Bacteria (SRB); experiment: Most Probable Number (MPN) bacterial kill efficacy, SRB; assay type: cell-based, mixed consortia isolated from seawater; details: first MPN set; for SRB per mL: formulation with ammonium bisulfide, 500 ppm active biocide; for log reduction of planktonic SRB: exposure time of 24 hours
Experimental: as §1, §2

[4] = tested on: General Heterotrophic Bacteria (GHB); experiment: Most Probable Number (MPN) bacterial kill efficacy, GHB; assay type: cell-based, mixed consortia isolated from seawater; details: first MPN set; for GHB per mL: formulation with ammonium bisulfide, 500 ppm active biocide; for log reduction of planktonic GHB: exposure time of 24 hours
Experimental: as §1, §2

N.O=S(O)O [ABS 30%, ammonium bisulfite]
Oxygen level (ppm O2) ([1]; fresh water, 25° C., time 0 minutes (stabilization before chemical injection)): 8.314 ppm O2
Oxygen level (ppm O2) ([1]; fresh water, 25° C., time 2 minutes (stabilization before chemical injection)): 8.346 ppm O2
Oxygen level (ppm O2) ([1]; fresh water, 25° C., time 4 minutes (stabilization before chemical injection)): 8.310 ppm O2
Oxygen level (ppm O2) ([1]; fresh water, 25° C., time 6 minutes (stabilization before chemical injection)): 8.265 ppm O2
Oxygen level (ppm O2) ([1]; fresh water, 25° C., time 8 minutes (stabilization before chemical injection)): 8.345 ppm O2
Oxygen level (ppm O2) ([1]; fresh water, 25° C., time 10 minutes (end of 10 minute stabilization)): 8.302 ppm O2
Oxygen level (ppm O2) ([1]; fresh water, 25° C., time 12 minutes): 7.612 ppm O2
Oxygen level (ppm O2) ([1]; fresh water, 25° C., time 14 minutes): 6.674 ppm O2
Oxygen level (ppm O2) ([1]; fresh water, 25° C., time 16 minutes): 5.585 ppm O2
Oxygen level (ppm O2) ([1]; fresh water, 25° C., time 18 minutes): 4.732 ppm O2
Oxygen level (ppm O2) ([1]; fresh water, 25° C., time 20 minutes): 4.115 ppm O2
Oxygen level (ppm O2) ([1]; fresh water, 25° C., time 22 minutes): 3.765 ppm O2
Oxygen level (ppm O2) ([1]; fresh water, 25° C., time 24 minutes): 3.195 ppm O2
Oxygen level (ppm O2) ([1]; fresh water, 25° C., time 26 minutes): 3.027 ppm O2
Oxygen level (ppm O2) ([1]; fresh water, 25° C., time 28 minutes): 2.546 ppm O2
Oxygen level (ppm O2) ([1]; fresh water, 25° C., time 30 minutes): 1.863 ppm O2
Oxygen level (ppm O2) ([1]; fresh water, 25° C., time 32 minutes): 1.516 ppm O2
Oxygen level (ppm O2) ([1]; fresh water, 25° C., time 34 minutes): 1.173 ppm O2
Oxygen level (ppm O2) ([1]; fresh water, 25° C., time 36 minutes): 0.857 ppm O2
Oxygen level (ppm O2) ([1]; fresh water, 25° C., time 38 minutes): 0.654 ppm O2
Oxygen level (ppm O2) ([1]; fresh water, 25° C., time 40 minutes): 0.436 ppm O2
Oxygen level (ppm O2) ([1]; fresh water, 25° C., time 42 minutes): 0.349 ppm O2
Oxygen level (ppm O2) ([1]; fresh water, 25° C., time 44 minutes): 0.215 ppm O2
Oxygen level (ppm O2) ([1]; fresh water, 25° C., time 46 minutes): 0.134 ppm O2
Oxygen level (ppm O2) ([1]; fresh water, 25° C., time 48 minutes): 0.119 ppm O2
Oxygen level (ppm O2) ([1]; fresh water, 25° C., time 50 minutes): 0.096 ppm O2
Oxygen level (ppm O2) ([1]; fresh water, 25° C., time 52 minutes): 0.087 ppm O2
Oxygen level (ppm O2) ([1]; fresh water, 25° C., time 54 minutes): 0.063 ppm O2
Oxygen level (ppm O2) ([1]; fresh water, 25° C., time 56 minutes): 0.055 ppm O2
Oxygen level (ppm O2) ([1]; fresh water, 25° C., time 58 minutes): 0.050 ppm O2
Oxygen level (ppm O2) ([1]; fresh water, 25° C., time 60 minutes): 0.480 ppm O2
Oxygen level (ppm O2) ([1]; seawater, 4° C., time 0 minutes (stabilization before chemical injection)): 7.554 ppm O2
Oxygen level (ppm O2) ([1]; seawater, 4° C., time 2 minutes (stabilization before chemical injection)): 7.452 ppm O2
Oxygen level (ppm O2) ([1]; seawater, 4° C., time 4 minutes (stabilization before chemical injection)): 7.357 ppm O2
Oxygen level (ppm O2) ([1]; seawater, 4° C., time 6 minutes (stabilization before chemical injection)): 7.268 ppm O2
Oxygen level (ppm O2) ([1]; seawater, 4° C., time 8 minutes (stabilization before chemical injection)): 7.121 ppm O2
Oxygen level (ppm O2) ([1]; seawater, 4° C., time 10 minutes (end of 10 minute stabilization)): 6.997 ppm O2
Oxygen level (ppm O2) ([1]; seawater, 4° C., time 12 minutes): 2.125 ppm O2
Oxygen level (ppm O2) ([1]; seawater, 4° C., time 14 minutes): 0.454 ppm O2
Oxygen level (ppm O2) ([1]; seawater, 4° C., time 16 minutes): 0.269 ppm O2
Oxygen level (ppm O2) ([1]; seawater, 4° C., time 18 minutes): 0.064 ppm O2
Oxygen level (ppm O2) ([1]; seawater, 4° C., time 20 minutes): 0.047 ppm O2
Oxygen level (ppm O2) ([1]; seawater, 4° C., time 22 minutes): 0.029 ppm O2
Oxygen level (ppm O2) ([1]; seawater, 4° C., time 24 minutes): 0.009 ppm O2
Oxygen level (ppm O2) ([1]; seawater, 4° C., time 26 minutes): 0.003 ppm O2
Oxygen level (ppm O2) ([1]; seawater, 4° C., time 28 minutes): 0.002 ppm O2
Oxygen level (ppm O2) ([1]; seawater, 25° C., time 0 minutes (stabilization before chemical injection)): 7.112 ppm O2
Oxygen level (ppm O2) ([1]; seawater, 25° C., time 2 minutes (stabilization before chemical injection)): 7.081 ppm O2
Oxygen level (ppm O2) ([1]; seawater, 25° C., time 4 minutes (stabilization before chemical injection)): 7.029 ppm O2
Oxygen level (ppm O2) ([1]; seawater, 25° C., time 6 minutes (stabilization before chemical injection)): 7.084 ppm O2
Oxygen level (ppm O2) ([1]; seawater, 25° C., time 8 minutes (stabilization before chemical injection)): 7.066 ppm O2
Oxygen level (ppm O2) ([1]; seawater, 25° C., time 10 minutes (end of 10 minute stabilization)): 7.061 ppm O2
Oxygen level (ppm O2) ([1]; seawater, 25° C., time 12 minutes): 0.052 ppm O2
Oxygen level (ppm O2) ([1]; seawater, 25° C., time 14 minutes): 0.013 ppm O2
Oxygen level (ppm O2) ([1]; seawater, 25° C., time 16 minutes): 0.010 ppm O2
Oxygen level (ppm O2) ([1]; seawater, 25° C., time 18 minutes): 0.009 ppm O2
Oxygen level (ppm O2) ([1]; seawater, 25° C., time 20 minutes): 0.008 ppm O2
Oxygen level (ppm O2) ([1]; seawater, 25° C., time 22 minutes): 0.007 ppm O2
Oxygen level (ppm O2) ([1]; seawater, 25° C., time 24 minutes): 0.006 ppm O2
Oxygen level (ppm O2) ([1]; seawater, 25° C., time 26 minutes): 0.005 ppm O2
Oxygen level (ppm O2) ([1]; seawater, 25° C., time 28 minutes): 0.004 ppm O2

CC1(C)C(=O)N(CO)C(=O)N1CO [DMDM hydantoin, 1,3-Bis(hydroxymethyl)-5,5-dimethylimidazoline-2,4-dione]
APB per mL ([2]; 24 h exposure): 4.5E+02 cells per mL
APB per mL ([2]; 7 d exposure): 2.5E+02 cells per mL
APB per mL ([2]; 28 d exposure): 9.5E+04 cells per mL
log reduction of APB numbers [2]: no effect
SRB per mL ([3]; 24 h exposure): 9.5E+04 cells per mL
SRB per mL ([3]; 7 d exposure): 9.5E+02 cells per mL
SRB per mL ([3]; 28 d exposure): 4.5E+06 cells per mL
log reduction of planktonic SRB [3]: no effect
GHB per mL ([4]; 24 h exposure): 9.5E+03 cells per mL
GHB per mL ([4]; 7 d exposure): 9.5E+05 cells per mL
GHB per mL ([4]; 28 d exposure): 2.5E+05 cells per mL
log reduction of planktonic GHB [4]: 1 log

CN1CSC(=S)N(C)C1 [Dazomat, Tetrahydro-3,5-dimethyl-2H-1,3,5-thiadiazine-2-thione]
APB per mL ([2]; 24 h exposure): 2.5E+02 cells per mL
APB per mL ([2]; 7 d exposure): 2.5E+02 cells per mL
APB per mL ([2]; 28 d exposure): 4.5E+02 cells per mL
log reduction of APB numbers [2]: 0.5 log
SRB per mL ([3]; 24 h exposure): 2.5E+04 cells per mL
SRB per mL ([3]; 7 d exposure): 2.0E+02 cells per mL
SRB per mL ([3]; 28 d exposure): 1.0E+00 cells per mL
log reduction of planktonic SRB [3]: did not result in a significant reduction
GHB per mL ([4]; 24 h exposure): 4.5E+02 cells per mL
GHB per mL ([4]; 7 d exposure): 4.5E+03 cells per mL
GHB per mL ([4]; 28 d exposure): 2.5E+05 cells per mL
log reduction of planktonic GHB [4]: 2.5 log

CC1CN(CN2COC(C)C2)CO1 (stereo not drawn) [MBMO, N, N′-Methylene bis(5-methyloxazolidine)]
APB per mL ([2]; 24 h exposure): 7.5E+02 cells per mL
APB per mL ([2]; 7 d exposure): 7.5E+02 cells per mL
APB per mL ([2]; 28 d exposure): 4.5E+01 cells per mL
SRB per mL ([3]; 24 h exposure): 9.5E+03 cells per mL
SRB per mL ([3]; 7 d exposure): 4.0E+01 cells per mL
SRB per mL ([3]; 28 d exposure): 1.0E+00 cells per mL
GHB per mL ([4]; 24 h exposure): 9.5E+03 cells per mL
GHB per mL ([4]; 7 d exposure): 4.5E+03 cells per mL
GHB per mL ([4]; 28 d exposure): 2.5E+02 cells per mL
further log reduction of GHB numbers ([4]; after 28 days): 2 log
log reduction of planktonic GHB [4]: 1 log
